# Measurements from patent US10548861B2 (Academia Sinica, priority 2015, dated 2020).
# “Also recorded” adds a separate entry of the source. Like-named read-outs stand apart in the source and are kept apart here.
# Legend:
# CL1-5 = test: Cytotoxicity: NSCLC; type: cell-based; conditions: Homo sapiens
# EBC1 (MET amp) = test: cells; type: cell-based; conditions: Homo sapiens, EBC-1
# DNA = test: Alkaline agarose gel shift DNA cross-linking assay; type: biochemical
# [1] = test system: PC9/gefb4 Gefetinib resistant; test: cells; type: cell-based; conditions: Homo sapiens
# Caco-2 cell monolayers = test: Caco-2 permeability assay; type: in vitro ADME, human
# Excerpt: The Caco-2 permeability assay is considered to be the industry gold standard for in vitro prediction of in vivo human intestinal permeability and bioavailability of orally administered drugs. The Caco-2 permeability assay uses an established method for predicting the absorption of therapeutic compounds across the GIT by measuring the rate of transport across a contiguous Caco-2 cell monolayer. […] The Caco-2 assay measures the passage of a test compound from a donor chamber into an acceptor chamber through a porous membrane on which a confluent Caco-2 monolayer forms a cellular barrier.
# CB Wk2 CAFC HPC = test: CAFC assay week 2; type: cell-based; conditions: Homo sapiens
# Excerpt: Half of medium was replenished with fresh medium weekly in triplicates. After 5 weeks, CAFC numbers of co-cultures were scored under a phase contrast microscope as areas of phase-dark cells beneath the stromal monolayer. For determining leukemic stem cells (LSC) the same assay was used but cultures are scored for cobblestone areas by 2 wks. Secondary re-passage of dissociated cobblestone area-forming cells onto fresh stroma was used to confirm the self-renewing ability of both HSC and LSC.
# H1993 (MET amp.) = test: Cytotoxicity: NSCLC; type: cell-based; conditions: Homo sapiens, NCI-H1993
# HL-60 = test: Cytotoxicity: AML line; type: cell-based; conditions: Homo sapiens
# CALU-6 (KRAS) = test: cells; type: cell-based; conditions: Homo sapiens
# H460 = test: Cytotoxicity: Large-Cell Lung Cancer; type: cell-based; conditions: Homo sapiens, NCI-H460
# SMS-CTR = test: Cytotoxicity: Rhabdomyosarcoma (embryonal type); conditions: Homo sapiens
# H2228 (EML4-ALK) = test: cells; type: cell-based; conditions: Homo sapiens, NCI-H2228
# [2] = test system: Desmoplastic small round cell tumor (DSRCT) cell lines; test: Cytotoxicity on sarcoma panel; type: cell-based; conditions: Homo sapiens; two DSRCT lines; read-out: IC50 range
# RH30 = test: Cytotoxicity: Rhabdomyosarcoma (Alveolar type); conditions: Homo sapiens, Rh30
# [3] = Pharmacokinetics, IV 1 mg/kg or oral 10 mg/kg (LC-MS/MS); type: in vivo, Sprague Dawley rats; conditions: rat; for oral absorption / plasma levels: oral 10 mg/kg, LLOQ […], 10 mg/kg
# Protocol: A single intravenous dose was administered via an indwelling catheter in the jugular vein to a group of 2 male rats at a dose level of 1.0 mg/kg. The formulations were prepared as a solution in 5.0% w/v DMSO with 10% w/v Cremophor in distilled water. […] The formulations were prepared as a solution in 0.5% w/v CMC in distilled water. Serial blood samples were collected from the jugular vein catheter up to 24 h post-dose from all animals in groups.
# H524 = test: 72 hr cytotoxicity: SCLC variant; type: cell-based; conditions: Homo sapiens, NCI-H524
# H69 = test: 72 hr cytotoxicity: SCLC classic; type: cell-based; conditions: Homo sapiens, NCI-H69
# SK-MES-1 (KRAS) = test: cells; type: cell-based; conditions: Homo sapiens
# H1703 = test: cells; type: cell-based; conditions: Homo sapiens, NCI-H1703
# SK-LU-1 (KRAS) = test: cells; type: cell-based; conditions: Homo sapiens
# BMEC-hTert = test: cells; type: cell-based; conditions: Homo sapiens, 72 h
# H299 = test: Cytotoxicity: Large-Cell Lung Cancer; type: cell-based; conditions: Homo sapiens
# N-417 = test: 72 hr cytotoxicity: SCLC variant; type: cell-based; conditions: Homo sapiens, N417
# FBMC = test: 72 hr cytotoxicity: fetal BM stroma; type: cell-based; conditions: Homo sapiens
# OSA = test: Cytotoxicity: Osteosarcoma; conditions: Homo sapiens, read-out: cytotoxic activity (IC50)
# MG63 = test: Cytotoxicity: Osteosarcoma; conditions: Homo sapiens, MG-63, read-out: cytotoxic activity (IC50)
# Mino = test: Cytotoxicity: Mantle Cell Lymphoma
# Protocol: (§1) After 72 hours, the cultures were pulsed with Alamar Blue overnight, and the fluorescent intensity of resulted cultures was measured by a Synergy H1 plate-reader (BioTek Inc). […] When human CD34+ cells were used for drug screen, 500˜1,000 cells/well were cultured in the presence of 20 ng/ml KL, 20 ng/ml IL-3, 20 ng/ml G-CSF and 6 units/ml EPO for 7-10 days prior to an addition of Alamar Blue.
# CHLA-9 = test: Cytotoxicity: Ewing's sarcoma; conditions: Homo sapiens, read-out: cytotoxic activity (IC50)
# H1755 (BRAF) = test: cells; type: cell-based; conditions: Homo sapiens, NCI-H1755
# [4] = test system: H526 variant SCLC cell line vs normal human tissues; type: cell-based
# LY1 = conditions: human
# Protocol: as §1
# H522 = test: Cytotoxicity: NSCLC; type: cell-based; conditions: Homo sapiens, NCI-H522
# HUVEC = test: 72 hr cytotoxicity: Umbilical endothelium; type: cell-based; conditions: Homo sapiens, HUVEC, 72 h
# TC-32 = test: Cytotoxicity: Ewing's sarcoma; conditions: Homo sapiens, TC-32, read-out: cytotoxic activity (IC50)
structure (smiles),measurement,setting,value
"CN(C)CCNC(=O)c1cccc(NC(=O)Nc2ccc(N(CCCl)CCCl)cc2)c1.Cl [BO-1055, ureidomustine]",IC50,CL1-5,6.08 µM
same,IC50,EBC1 (MET amp),4.51 µM
same,DNA inter-strand cross-linking,DNA,able to induce DNA inter-strand cross-linking
same,IC50,[1],≥ 10 µM
same,Papp (A to B),Caco-2 cell monolayers,not detected
same,intestinal permeability (in words),Caco-2 cell monolayers,cannot penetrate the intestinal cells
same,mass balance in A→B and B→A directions,Caco-2 cell monolayers,< 50%
same,intestinal permeability (in words),Caco-2 cell monolayers; listed as ureidomustine,very low permeable drug; also recorded: Low intestinal permeability
same,IC50,"CB Wk2 CAFC HPC; read-out: IC50 (mean of n=4 cord blood samples), Wk2 CAFC HPC",9.2 µM
same,IC50,"CB Wk2 CAFC HPC; FIG. 1: wk 2 CAFC (HPC) and wk 5 CAFC (HSC), read-out: IC50",7.5 to 8.2 µM
same,IC50,H1993 (MET amp.),6.72 µM
same,IC50,HL-60,1.5 µM
same,IC50,CALU-6 (KRAS),3.31 µM
same,IC50,H460,6.2 µM
same,IC50,SMS-CTR,≥ 10 µM
same,IC50,SMS-CTR; read-out: cytotoxic activity (IC50),≥ 10 µM
same,IC50,H2228 (EML4-ALK),1.7 µM
same,IC50,[2],2.41 to 3.74 µM
same,IC50,RH30,0.24 µM
same,AUC (0-last),"[3]; IV 1 mg/kg, N = 2",925.81 ng·h/mL
same,AUC (0-∞),"[3]; IV 1 mg/kg, N = 2",934.93 ng·h/mL
same,CLss,"[3]; IV 1 mg/kg, N = 2",18.00 mL/min/kg
same,Vss,"[3]; IV 1 mg/kg, N = 2",0.15 L/kg
same,t1/2,"[3]; IV 1 mg/kg, N = 2",34.8 min
same,oral absorption / plasma levels,[3],No quantifiable levels
same,oral absorption / plasma levels,[3]; listed as ureidomustine,No Oral Absorption
same,IC50,H524,0.34 ± 0.01 µM
same,IC50,H69,< 20 µM
same,IC50,SK-MES-1 (KRAS),≥ 10 µM
same,IC50,H1703,1.67 µM
same,IC50,SK-LU-1 (KRAS),4.23 µM
same,IC50,BMEC-hTert,> 10 µM
same,IC50,H299,5.34 µM
same,IC50,N-417,30 µM
same,IC50,FBMC,8.48 µM
same,IC50,OSA,≥ 10 µM
same,IC50,MG63,2.67 µM
same,IC50,Mino,0.583 µM
same,IC50,"Mino; read-out: cytotoxicity IC50, Mantle Cell",0.11 µM
same,IC50,CHLA-9,0.6 µM
same,IC50,H1755 (BRAF),≥ 20 µM
same,Therapeutic window,[4],100-533 fold
same,IC50,LY1,3.09 µM
same,IC50,H522,3 µM
same,IC50,HUVEC,60.5 µM
same,IC50,TC-32,0.6 µM
